In article PMC7991022, “Optimization of extracellular ethanol-tolerant β-glucosidase production from a newly isolated Aspergillus sp. DHE7 via solid state fermentation using jojoba meal as substrate: purification and biochemical characterization for biofuel preparation” (Journal of Genetic Engineering & Biotechnology, 2021):

Test system: T1, Aspergillus sp. DHE7 β-glucosidase
T1 construct: gene beta-D-glucosidase; native extracellular enzyme purified from solid-state culture (jojoba meal): ethanol precipitation, DEAE-Sephadex A-50, Sephadex G-100; monomer, 135 kDa by SDS-PAGE
Assay: p-nitrophenol release at […] nm, Lineweaver-Burk plot
Format: biochemical
Conditions: pH 6.0, 60 °C, 50 mM Na-citrate; 0.25 to 20 mM substrate; apparent Km

With `O=[N+]([O-])c1ccc(O[C@@H]2O[C@H](CO)[C@@H](O)[C@H](O)[C@H]2O)cc1` [p-nitrophenyl-β-D-glucopyranoside] the Km was 400 µM.
